Source: US20240239755A1, “SUBSTITUTED PYRIDAZINONES, SALTS OR N-OXIDES THEREOF AND THEIR USE AS HERBICIDALLY ACTIVE SUBSTANCES” (Bayer Aktiengesellschaft, priority 2021, published 2024)

Key:
Assay type in all cases: in vivo
[1] = tested on: Kochia scoparia (KCHSC); assay: Herbicidal pre-emergence action, 1280 g/ha (Table A4); conditions: visual grading after ca. 3 weeks vs untreated controls
Method in brief: (§1)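 Pre-emergence soil-surface spray, sandy loam, mono-/dicot double sowings per pot; WP or EC formulations, aqueous, +0.5% additive, 600 L/ha water. Greenhouse, optimum conditions. Visual % damage vs untreated at ca. 3 wk (100% = dead).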

[2] = tested on: Lolium rigidum (LOLRI); assay: Herbicidal pre-emergence action, 1280 g/ha (Table A5); conditions: visual grading after ca. 3 weeks vs untreated controls
Method in brief: as §1

[3] = tested on: Matricaria inodora (MATIN); assay: Herbicidal pre-emergence action, 1280 g/ha (Table A6); conditions: visual grading after ca. 3 weeks vs untreated controls
Method in brief: as §1

[4] = tested on: Poa annua (POAAN); assay: Herbicidal pre-emergence action, 1280 g/ha (Table A7); conditions: visual grading after ca. 3 weeks vs untreated controls
Source text: (§2) Seeds of mono- and dicotyledonous weed plants were sown in plastic pots (double sowings with one species of mono- and one species of dicotyledonous weed plants per pot), in sandy loam, and covered with soil. The compounds according to the invention, formulated in the form of wettable powders (WP) or as emulsifiable concentrates (EC), were applied to the surface of the covering soil as an aqueous suspension or as an emulsion, with the addition of 0.5% of an additive, at an application rate of 600 litres of water per hectare (converted). Following treatment, the pots were placed in a greenhouse and kept under optimum growth conditions for the test plants. The visual grading of the damage to the test plants was carried out after ca. 3 weeks in comparison to untreated controls (herbicidal effect in percent (%): 100% effect=plants have died, 0% effect=as control plants). Tables A1 to A11 below, show the effects of selected compounds of the general formula (I) according to Table 1 on various harmful plants and an application rate corresponding to 1280 g/ha obtained by the experimental procedure mentioned above.

[5] = tested on: Stellaria media (STEME); assay: Herbicidal pre-emergence action, 1280 g/ha (Table A9); conditions: visual grading after ca. 3 weeks vs untreated controls
Method in brief: as §1

[6] = tested on: Amaranthus retroflexus (AMARE); assay: Herbicidal pre-emergence action, 1280 g/ha (Table A11); conditions: visual grading after ca. 3 weeks vs untreated controls
Method in brief: as §1

[7] = tested on: Abutilon theophrasti (ABUTH); assay: Herbicidal post-emergence action, 1280 g/ha (Table B1); conditions: visual assessment after ca. 3 weeks vs untreated controls
Method in brief: (§3)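 Read-out is visual herbicidal effect in percent against untreated controls (100% = dead plants, 0% = like controls), scored about 3 weeks after treatment. Plants at the single-leaf stage were sprayed on green parts with aqueous WP or EC preparations containing 0.5% additive, 600 L water/ha.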

[8] = tested on: Echinochloa crus-galli (ECHCG); assay: Herbicidal post-emergence action, 1280 g/ha (Table B3); conditions: visual assessment after ca. 3 weeks vs untreated controls
Source text: (§4) Seeds of mono- and dicotyledonous weed plants were sown in plastic pots (double sowings with one species of mono- and one species of dicotyledonous weed plants per pot), in sandy loam, covered with soil and grown under controlled growth conditions. 2 to 3 weeks after sowing, the test plants were sprayed in the single-leaf stage. The compounds according to the invention, formulated in the form of wettable powders (WP) or as emulsifiable concentrates (EC), were sprayed onto the green plant parts as an aqueous suspension or as an emulsion, with the addition of 0.5% of an additive, at an application rate of 600 litres of water per hectare (converted). The test plants were placed in the greenhouse for ca. 3 weeks under optimum growth conditions, and then the effect of the preparations was assessed visually in comparison with untreated controls (herbicidal effect in percent (%): 100% effect=plants have died, 0% effect=as control plants). Tables B1 to B11 below, show the effects of selected compounds of the general formula (I) according to Table 1 on various harmful plants using an application rate corresponding to 1280 g/ha obtained by the experimental procedure mentioned above.

[9] = tested on: Lolium rigidum (LOLRI); assay: Herbicidal post-emergence action, 1280 g/ha (Table B5); conditions: visual assessment after ca. 3 weeks vs untreated controls
Source text: as §4

[10] = tested on: Matricaria inodora (MATIN); assay: Herbicidal post-emergence action, 1280 g/ha (Table B6); conditions: visual assessment after ca. 3 weeks vs untreated controls
Method in brief: as §3

[11] = tested on: Stellaria media (STEME); assay: Herbicidal post-emergence action, 1280 g/ha (Table B9); conditions: visual assessment after ca. 3 weeks vs untreated controls
Method in brief: as §3

[12] = tested on: Amaranthus retroflexus (AMARE); assay: Herbicidal post-emergence action, 1280 g/ha, AMARE; conditions: visual grading vs untreated controls
Method in brief: (§5)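 Pot-grown weeds in sandy loam sprayed post-emergence at the single-leaf stage, 2–3 weeks after sowing, with WP or EC formulations plus 0.5% additive in 600 L water/ha at 1280 g/ha. After ca. 3 weeks in the greenhouse, damage scored visually as % effect versus untreated controls (100% = plants dead).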

[13] = tested on: Lolium rigidum (LOLRI); assay: Herbicidal pre-emergence action, 320 g/ha (Table C2); conditions: visual grading after ca. 3 weeks vs untreated controls
Source text: as §2, with “Tables C1” for “Tables A1”, “to C6” for “to A11”, “plants using” for “plants and”, “to 320” for “to 1280”

[14] = tested on: Stellaria media (STEME); assay: Herbicidal pre-emergence action, 320 g/ha, STEME; conditions: visual grading after ca. 3 weeks
Method in brief: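 Weed seeds sown in sandy loam pots; WP or EC formulations applied pre-emergence to the covering soil surface at 320 g/ha with 0.5% additive in 600 L water/ha. Greenhouse growth; visual damage scored after ca. 3 weeks versus untreated controls (100% = plants died, 0% = as control).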

[15] = tested on: Abutilon theophrasti (ABUTH); assay: Herbicidal post-emergence action, 320 g/ha, ABUTH; conditions: visual grading after ca. 3 weeks
Method in brief: (§6)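 Post-emergence spray at single-leaf stage; WP/EC in aqueous suspension/emulsion, 0.5% additive, 600 L water/ha. Greenhouse ~3 wk, visual rating vs untreated: 0% = as control, 100% = plants dead.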

[16] = tested on: Stellaria media (STEME); assay: Herbicidal post-emergence action, 320 g/ha, STEME; conditions: visual grading after ca. 3 weeks
Method in brief: as §6

[17] = tested on: Amaranthus retroflexus (AMARE); assay: Herbicidal post-emergence action, 320 g/ha, AMARE; conditions: visual grading after ca. 3 weeks
Method in brief: as §6

[18] = tested on: Abutilon theophrasti (ABUTH); assay: Herbicidal pre-emergence action, 1280 g/ha (Table A1); conditions: visual grading after ca. 3 weeks vs untreated controls
Source text: as §2

[19] = tested on: Kochia scoparia (KCHSC); assay: Herbicidal post-emergence action, 1280 g/ha (Table B4); conditions: visual assessment after ca. 3 weeks vs untreated controls
Method in brief: as §3

[20] = tested on: Veronica persica (VERPE); assay: Herbicidal post-emergence action, 1280 g/ha, VERPE; conditions: visual grading vs untreated controls
Method in brief: as §5

[21] = tested on: Setaria viridis (SETVI); assay: Herbicidal post-emergence action, 1280 g/ha (Table B8); conditions: visual assessment after ca. 3 weeks vs untreated controls
Source text: as §4

[22] = tested on: Kochia scoparia (KCHSC); assay: Herbicidal post-emergence action, 320 g/ha, KCHSC; conditions: visual grading after ca. 3 weeks
Source text: as §4, with “plants).” for “plants). Tables B1 to B11 below, show the effects of selected compounds of the general formula (I) according to Table 1 on various harmful plants using an application rate corresponding to 1280 g/ha obtained by the experimental procedure mentioned above.”
(§7) Tables D1 to D8 below, show the effects of selected compounds of the general formula (I) according to Table 1 on various harmful plants using an application rate corresponding to 320 g/ha obtained by the experimental procedure mentioned above.

[23] = tested on: Setaria viridis (SETVI); assay: Herbicidal pre-emergence action, 1280 g/ha (Table A8); conditions: visual grading after ca. 3 weeks vs untreated controls
Source text: as §2

[24] = tested on: Lolium rigidum (LOLRI); assay: Herbicidal post-emergence action, 320 g/ha, LOLRI; conditions: visual grading after ca. 3 weeks
Source text: as §4, with “plants).” for “plants). Tables B1 to B11 below, show the effects of selected compounds of the general formula (I) according to Table 1 on various harmful plants using an application rate corresponding to 1280 g/ha obtained by the experimental procedure mentioned above.”
as §7

[25] = tested on: Matricaria inodora (MATIN); assay: Herbicidal post-emergence action, 320 g/ha, MATIN; conditions: visual grading after ca. 3 weeks
Source text: as §4, with “plants).” for “plants). Tables B1 to B11 below, show the effects of selected compounds of the general formula (I) according to Table 1 on various harmful plants using an application rate corresponding to 1280 g/ha obtained by the experimental procedure mentioned above.”
as §7

[26] = tested on: Veronica persica (VERPE); assay: Herbicidal post-emergence action, 320 g/ha, VERPE; conditions: visual grading after ca. 3 weeks
Source text: as §4, with “plants).” for “plants). Tables B1 to B11 below, show the effects of selected compounds of the general formula (I) according to Table 1 on various harmful plants using an application rate corresponding to 1280 g/ha obtained by the experimental procedure mentioned above.”
as §7

Row | Structure (SMILES) | herbicidal effect KCHSC [1] [%] | herbicidal effect LOLRI [2] [%] | herbicidal effect MATIN [3] [%] | herbicidal effect STEME [5] [%] | herbicidal effect AMARE [6] [%] | herbicidal effect ABUTH [7] [%] | herbicidal effect ECHCG [8] [%] | herbicidal effect LOLRI [9] [%] | herbicidal effect MATIN [10] [%] | herbicidal effect STEME [11] [%] | herbicidal effect AMARE [12] [%] | herbicidal effect LOLRI [13] [%] | herbicidal effect STEME [14] [%] | herbicidal effect ABUTH [15] [%] | herbicidal effect STEME [16] [%] | herbicidal effect AMARE [17] [%] | herbicidal effect ABUTH [18] [%] | herbicidal effect KCHSC [19] [%] | herbicidal effect VERPE [20] [%] | herbicidal effect SETVI [21] [%] | further results
1 | Cc1nn(C)c(=O)c(Oc2ccccc2C(C)C)c1O [Example I-022] | 90 | 100 | 90 | 100 | 90 | 100 | 90 | 90 | 90 | 100 | 90 | 100 | 100 | 90 | 90 | 90 | – | – | – | – | herbicidal effect POAAN [4]: 90%
2 | CC(=O)Oc1c(C)nn(C)c(=O)c1Oc1ccccc1OC(F)(F)F [Example I-029] | 90 | 100 | 100 | 100 | 100 | 100 | 90 | 90 | 90 | 100 | 90 | 90 | – | 90 | 90 | 90 | 90 | 90 | 90 | – | –
3 | CCOC(=O)Oc1c(C)nn(C)c(=O)c1Oc1ccc(Cl)cc1C1CC1 [Example I-036] | – | 90 | 100 | 100 | – | 90 | – | 90 | 90 | 90 | 100 | – | – | 90 | – | 90 | – | 90 | 90 | 90 | herbicidal effect KCHSC [22]: 90%
4 | CCOC(=O)Oc1c(C)nn(C)c(=O)c1Oc1cc(F)ccc1C1CC1 [Example I-045] | – | 100 | 90 | 100 | 100 | 100 | – | 100 | 100 | 100 | 100 | 90 | 90 | 100 | 90 | 90 | 90 | 90 | 100 | 90 | herbicidal effect SETVI [23]: 90%; herbicidal effect KCHSC [22]: 90%; herbicidal effect LOLRI [24]: 100%; herbicidal effect MATIN [25]: 90%; herbicidal effect VERPE [26]: 100%
5 | CCOC(=O)Oc1c(C)nn(C)c(=O)c1Oc1cc(F)ccc1Br [Example I-088] | – | 100 | 100 | 90 | 100 | – | – | 90 | 90 | 90 | 100 | 90 | – | – | – | 90 | – | – | – | 90 | –
6 | CCOC(=O)Oc1c(C)nn(C)c(=O)c1Oc1cc(F)c(F)cc1Br [Example I-093] | 90 | – | 90 | – | 90 | 90 | – | – | 90 | 90 | 100 | – | – | – | – | – | – | – | 90 | 90 | herbicidal effect MATIN [25]: 90%
